Here are results for 13 compounds from ChEMBL document CHEMBL1201862, “PubChem BioAssay data set” (2004).

Calls of active or inactive are those of the source.

The nature of assay [1]: growth inhibition of PfATP4-mutant resistant parasites – NITD609-resistant line, SYBR Green, dry powder, dose response (AID 1159571).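 Further: parasites synchronized at ring stage by sorbitol before testing.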 The assay is classed as functional, cell-based.
The nature of assay [2]: growth inhibition of yeast DHODH-expressing 3D7 parasites – SYBR Green, dry powder samples, dose response (AID 1159570).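 Further: parasite growth measured after 72 hours of compound exposure.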 The assay is classed as functional, cell-based.
Assay [3] can be described thus: P. falciparum Dd2 growth inhibitors, dose response, SYBR Green, cherry-picked samples (AID 1159567). The assay is classed as functional, cell-based.
Assay [4] can be described thus: Dd2 malaria parasite growth inhibition potency – SYBR Green, dry powder samples, dose response (AID 1159566).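 Further: potency for growth inhibition with lower SYBR green DNA signal.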 The assay is classed as functional, cell-based.
For assay [5], the target named is Mannose-6-phosphate isomerase (Homo sapiens, UniProt P34949). As to the kind of experiment: MPI inhibition at elevated mannose 6-phosphate – biochemical, fluorescence intensity, high mannose 6-phosphate, primary screen (AID 1220).
Assay [6] is described as follows: IC50 of insulin release inhibition, rat insulinoma INS-1E line, 5 mM glucose, cell-based (AID 1117331). The assay is classed as functional.
Assay [7] is described as follows: viability inhibitors of stage V gametocytes – luminescence, dose response (AID 1117278).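 Further: gametocytes exposed to compound for 24 hours.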 The assay is classed as functional, cell-based.
Assay [8] is described as follows: viability loss in human Jurkat cells – cell-based, luminescence, cytotoxicity control for P. falciparum gametocyte viability project, dose response (AID 1117277).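 Further: potency reflects loss of cellular ATP meaning fewer viable cells.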 The assay is classed as functional.
The nature of assay [9]: M. tuberculosis growth inhibition, HTS (AID 449762). The assay is classed as functional.
Assay [10] can be described thus: Vero E6 cell cytotoxicity, dose response, cytotoxicity control for non-replicating M. tuberculosis project, secondary assay (AID 492998). The note with it: Vero C1008. The assay is classed as functional, VeroE6.
Assay [11] can be described thus: inhibition of ARNT PAS-B/TACC3 complex formation – biochemical, AlphaScreen, cherry-picked samples, confirmation (AID 651703).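 Further: His-tagged ARNT PAS-B domain paired with GST-TACC3 E629A dimer coactivator fragment; potency of inhibitors that break up the complex and lower AlphaScreen signal.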 The assay is classed as functional, Homo sapiens.
Assay [12] is described as follows: bead-based luminescence quenchers, dual-tagged ARNT – biochemical, AlphaScreen, cherry-pick, artefact control for ARNT-TACC3 interaction inhibitor project, dose response (AID 651705).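 Further: AlphaScreen bead proximity signal that flags compounds interfering with the detection technology; potency reflects signal decrease which marks the compound as an assay artifact.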 The assay is classed as functional.
Assay [13] is described as follows: THP-1 cell cytotoxicity, dose response, cytotoxicity control for non-replicating M. tuberculosis project (AID 489025). The assay is classed as functional.
Assay [14] is described as follows: microbe, parasite or virus in culture. The assay is classed as functional. The note with it: Mycobacterium tuberculosis.
The nature of assay [15]: IC50 of Artemis nuclease activity blockers – biochemical, fluorescence intensity, dose response (AID 720701).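 Further: Artemis endonuclease enzyme.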 The assay is classed as functional.
For assay [16], the target named is Luciferin 4-monooxygenase (Photinus pyralis, UniProt P08659). As to the kind of experiment: inhibition of purified Photinus pyralis luciferase – biochemical, luminescence, dose response (AID 1891).
Assay [17] in a line: Luminescence Cell-Based Dose Confirmation HTS to Identify Inhibitors of Platelet Dense Granule Release. [Related pubchem assays: 1663 (Primary HTS), 1678 (Summary of Project)]. The assay is classed as functional.
The nature of assay [18]: cells. The assay is classed as functional.
A short description of assay [19]: Luminescence Cell-Based Secondary HTS screen to identify cytotoxic compounds of NIH3T3 cells. [Related pubchem assays: 1885, 1968 ]. The assay is classed as functional.
A short description of assay [20]: NIH3T3 cell viability loss – ATP luminescence, mouse fibroblasts, counter-screen, dose response (AID 2010).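 Further: cells exposed to compound for about 90 hours before reading.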 The assay is classed as functional, cell-based.
Assay [21] can be described thus: Trypanosoma cruzi growth suppression in host cells – NIH3T3 host cells, beta-gal luminescence, confirmation (AID 2044).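 Further: intracellular parasites grown in NIH/3T3 mouse fibroblasts as host cells; luminescent beta-galactosidase reporter signal from transgenic T. cruzi replicating inside host cells; inhibitors lower the luminescence signal.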 The assay is classed as functional, cell-based.
For assay [22], the system named is Vero. As to the kind of experiment: mammalian cell viability reduction – secondary assay, cytotoxicity control for West Nile virus antiviral project, dose response (AID 1650). The assay is classed as functional. As to conditions: Chlorocebus sabaeus.
Assay [23] has as its system Vero. Put plainly: inhibition of WNV-induced cytopathic effect – cell-based, CPE readout (AID 1621). The assay is classed as functional. As to conditions: Chlorocebus sabaeus.
Assay [24] relates to P388/ADR. Put plainly: cells. The assay is classed as functional. The note with it: Mus musculus.
The nature of assay [25]: Potency on glucagon-like peptide 1 release, dose-response in NCI-H716 cell line, half maximal inhibitory concentration (AID 1117344). The assay is classed as functional, cell-based.
In assay [26] the test system is P388. Put plainly: cells. The note with it: Mus musculus. The assay is classed as functional.
Assay [27] is described as follows: glucagon-like peptide-1 release potency in STC-1, concentration-response, half-maximal inhibitory concentration in the STC-1 line (AID 1117345). The assay is classed as functional, cell-based.
In assay [28] the test system is SN12K1. Put plainly: cells. As to conditions: Homo sapiens. The assay is classed as functional.
Assay [29] can be described thus: toxicity to human hepatoma HepG2 cells – cell-based, cherry-picked samples, cytotoxicity control, dose response (AID 1159577). The assay is classed as functional.
Assay [30] addresses Ephrin type-A receptor 4 (Mus musculus, UniProt Q03137). As to the kind of experiment: EphA4 ligand-binding antagonists – biochemical, colorimetric, mouse EphA4, primary screen (AID 689). The assay is classed as functional.
Assay [31] in a line: rise of 2N DNA cells, HeLa – IC50, dose response (AID 1117349). The assay is classed as functional, cell-based.
Assay [32] can be described thus: rise of 4N DNA cells, HeLa – IC50, dose response (AID 1117351). The assay is classed as functional, cell-based.
Assay [33] deals with Solute carrier family 12 member 2/member 5 (Homo sapiens, UniProt P55011+Q9H2X9). As to the kind of experiment: KCC2 and NKCC1 inhibition by rubidium flux, cell-based, NKCC1 counter-screen (AID 1734). The assay is classed as functional, HEK293.

Mannose-6-phosphate isomerase, sequence (P34949 whole entry): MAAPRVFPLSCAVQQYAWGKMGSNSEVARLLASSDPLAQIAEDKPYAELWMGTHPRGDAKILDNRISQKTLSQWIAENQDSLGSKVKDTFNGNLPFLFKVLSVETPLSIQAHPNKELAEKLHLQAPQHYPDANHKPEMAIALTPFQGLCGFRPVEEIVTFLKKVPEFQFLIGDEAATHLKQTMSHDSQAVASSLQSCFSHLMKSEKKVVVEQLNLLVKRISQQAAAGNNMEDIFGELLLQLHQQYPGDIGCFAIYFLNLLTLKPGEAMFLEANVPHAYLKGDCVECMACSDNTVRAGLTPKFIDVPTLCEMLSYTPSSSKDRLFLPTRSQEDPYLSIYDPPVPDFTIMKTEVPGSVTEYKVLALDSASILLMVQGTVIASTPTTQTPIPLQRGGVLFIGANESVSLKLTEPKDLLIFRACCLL
Ephrin type-A receptor 4, sequence (Q03137 whole entry): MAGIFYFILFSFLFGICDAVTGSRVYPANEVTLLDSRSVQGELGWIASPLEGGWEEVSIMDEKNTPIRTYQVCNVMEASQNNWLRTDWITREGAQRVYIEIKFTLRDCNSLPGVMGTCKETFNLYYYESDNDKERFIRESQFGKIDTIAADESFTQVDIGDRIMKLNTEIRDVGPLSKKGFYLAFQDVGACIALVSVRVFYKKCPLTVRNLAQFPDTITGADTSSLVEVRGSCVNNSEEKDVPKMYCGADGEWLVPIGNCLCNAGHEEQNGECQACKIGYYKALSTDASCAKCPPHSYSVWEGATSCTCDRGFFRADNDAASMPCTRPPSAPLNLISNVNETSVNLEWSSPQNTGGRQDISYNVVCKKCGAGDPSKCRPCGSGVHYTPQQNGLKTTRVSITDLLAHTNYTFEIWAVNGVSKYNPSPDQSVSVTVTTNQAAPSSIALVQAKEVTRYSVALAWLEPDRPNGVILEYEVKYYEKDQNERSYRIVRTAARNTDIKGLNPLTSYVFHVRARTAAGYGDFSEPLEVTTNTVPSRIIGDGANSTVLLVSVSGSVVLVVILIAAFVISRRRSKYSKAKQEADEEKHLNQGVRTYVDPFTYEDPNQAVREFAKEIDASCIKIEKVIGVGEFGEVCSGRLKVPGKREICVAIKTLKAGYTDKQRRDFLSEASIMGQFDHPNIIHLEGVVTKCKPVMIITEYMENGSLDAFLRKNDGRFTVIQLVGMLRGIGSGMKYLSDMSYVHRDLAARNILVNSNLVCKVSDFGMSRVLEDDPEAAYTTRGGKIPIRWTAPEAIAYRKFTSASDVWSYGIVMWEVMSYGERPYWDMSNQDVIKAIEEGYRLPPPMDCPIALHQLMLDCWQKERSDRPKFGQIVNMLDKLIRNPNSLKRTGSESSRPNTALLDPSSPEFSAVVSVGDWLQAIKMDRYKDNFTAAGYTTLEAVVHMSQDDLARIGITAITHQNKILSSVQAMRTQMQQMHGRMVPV
Luciferin 4-monooxygenase, sequence (P08659 whole entry): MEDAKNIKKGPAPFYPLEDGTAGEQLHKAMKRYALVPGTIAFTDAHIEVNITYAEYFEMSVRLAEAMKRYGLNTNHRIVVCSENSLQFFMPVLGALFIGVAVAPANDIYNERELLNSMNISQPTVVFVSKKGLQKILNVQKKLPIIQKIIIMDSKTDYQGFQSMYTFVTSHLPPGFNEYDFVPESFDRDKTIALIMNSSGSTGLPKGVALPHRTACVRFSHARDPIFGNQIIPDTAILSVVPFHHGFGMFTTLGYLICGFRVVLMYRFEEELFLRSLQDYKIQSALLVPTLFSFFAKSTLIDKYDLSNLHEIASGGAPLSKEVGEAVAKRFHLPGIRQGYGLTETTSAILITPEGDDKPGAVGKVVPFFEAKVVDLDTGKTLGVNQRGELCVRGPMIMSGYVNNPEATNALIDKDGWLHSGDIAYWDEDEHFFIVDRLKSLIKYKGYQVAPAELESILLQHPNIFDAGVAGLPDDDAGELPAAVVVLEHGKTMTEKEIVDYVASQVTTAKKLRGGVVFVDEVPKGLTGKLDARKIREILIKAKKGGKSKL

For the compound `O=C(c1cccc(F)c1)N1CC(=O)N2[C@H](C1)[C@@H](c1ccc(-c3cccnc3)cc1)[C@@H]2CO`, the half-maximal activity concentration (AC50) is 0.0729 µM (active) in [1], 0.151 µM (active) in assay [2], 0.331 µM (active) in assay [3] and 0.088 µM (active) in [4].
For `FC(F)Oc1cccc(NC(=S)N2CCN(c3ccccn3)CC2)c1`, in assay [5], the IC50 is reported as > 50 µM (not active).
For `O=C(CCN1CCN2CCCC2C1)N1c2ccccc2Sc2ccc(Cl)cc21` (stereo unspecified) [AZACLORZINE], the IC50 in assay [6] was 16.8 µM (inactive).
Regarding `CC(C)c1cc(C(=O)O)c2cnn(C(C)C)c2n1`, the IC50 in assay [7] is > 109 µM (inactive); in [8], > 83.2 µM (inactive).
As for `Fc1ccc(N/N=C2/CC(c3ccccc3)Oc3ccccc32)c(F)c1` (stereo unspecified), in [9], the half-maximal inhibitory concentration (IC50) was > 100 µM (active).
Consider `c1ccc(-c2nc3c(ccc4ccccc43)[nH]2)nc1`, for which the CC50 in assay [10] was > 20 µM (active); in assay [13], 38.9 µM (active); in assay [14], > 40 µM (active). In addition, the figures for the AC50 in assay [11] and in assay [12] were 79 µM (active) and 119 µM (active), respectively. The IC50 in assay [15] was 14.4 µM (active); in assay [18] it was 18.9 µM (active). The EC50 is 4.22 µM (active) in [16] and 27.1 µM (active) in assay [17].
Consider `O=C(NCC1CCCN(Cc2cccc(C(F)(F)F)c2)C1)c1ccc(F)cc1` (stereo unspecified), for which the concentration for a half-maximal effect (EC50) in assay [19] is > 195 µM (not active); in [20], > 60 µM (inconclusive); in [21] it was 0.112 µM (active).
On to `CN1CCc2ccccc2C1Cc1ccccc1NC(=O)c1sc2ccccc2c1Cl` (stereo unspecified), for which the CC50 in [22] was > 100 µM (active). The concentration for a half-maximal effect (EC50) was > 60 µM (not active) in [20] and 2.73 µM (active) in assay [21]. The IC50 in assay [23] was 41.2 µM (active).
Take `CCCCCCCCCCCCCCCCCCOCC(O)CO` (stereo unspecified) [BATILOL]: the figures for the GI50 in assay [24], in [26] and in assay [28] were 9.82 µM (inactive), 6.65 µM (inactive) and 22.5 µM (inactive), respectively. Further, the IC50 in [25] and in assay [27] was > 40 µM (inactive) in each case.
Consider `O=C(C1CC1)N1CC(=O)N2[C@H](C1)[C@@H](c1ccc(C#CCc3ccccc3)cc1)[C@@H]2CO`, for which the AC50 in [3] was 9.21 µM (active); in assay [29], 35.5 µM (active).
Consider `Cc1cc(C)n(CNc2nc(C(F)(F)F)cs2)n1`, for which the IC50 in assay [30] is recorded as > 100 µM (not active).
On to `CCCOc1ccc2[nH]c(NC(=O)OC)nc2c1` [OXIBENDAZOLE], for which the IC50 is 0.0622 µM (active) in assay [31] and 0.0567 µM (active) in assay [32].
On to `CC(C)c1onc(C(=O)N2CCN(Cc3ccccc3)CC2)c1[N+](=O)[O-]`, for which the half-maximal inhibitory concentration (IC50) in assay [33] was 1.5 µM (active).
